What was measured:
[1] = system: human breast T47D cancer cells; set-up: method as in Van Heusden et al, 2002; details: 1 μM, ref Van Heusden et al, 2002; cited from earlier work
[2] = system: Bcl-2; assay: Western-blot analysis of Bcl-2 in LNCaP cells; type: cell-based, human; details: data not shown
Method: The Western-blot protocol described for cytokeratins 8/18 was followed with some exceptions. Cell lysates (50 μg) were separated on a 15% SDS–PAGE gel. All washing was performed using TBS containing 1% Tween 20 (TBS-T). Blocking was performed using 5% milk in TBS-T. Incubations were performed using rabbit monoclonal IgG antibody to Bad and Bcl-2 (1 : 1000), as well as horseradish peroxidase-linked anti-rabbit IgG antibodies (1 : 2000) (Cell Signaling Technology, Beverly, MA, USA).

[3] = system: LNCaP cells; assay: Cell-cycle analysis (propidium iodide, FACScan); type: cell-based, human; details: 1 μM, 6 days
Method: LNCaP cells were treated with 1 or 5 μM of ATRA or each of the RAMBAs for 6 days. The cells were trypsinised and washed twice in PBS (Life Technologies, Grand Island, NY, USA). The cells were fixed by adding 70% ethanol and stored at −20°C until staining. The cells were washed twice in PBS. A volume of 1 ml of a propidium iodide (PI) solution (50 μg ml^−1 in PBS) and 500 μl of an RNase stock solution (100 μg ml^−1) were added to the cells and incubated for 1 h in the dark. Approximately 10^4 stained cells were then analysed by flow cytometry (Becton Dickenson FACScan, Franklin Lakes, NJ, USA). The percentages of cells in G0/G1, S, and G2/M phases of the cell cycle as well as percentage of apoptotic cells (sub G0/G1) were determined using MODFIT LT software (Verity Software House, San Jose, CA, USA). The percentages of cells in G0/G1, S, and G2/M phases of the cell cycle were obtained from diploid cells in the sample and the percentage of apoptotic cells (sub G0/G1) was obtained from total cells minus the debris.

[4] = system: LNCaP cells; assay: TUNEL assay of apoptosis in LNCaP cells; type: cell-based, human; details: 1 or 5 μM, 6 days
Method: A total of 4000 LNCaP cells were plated on each well of an eight-well Lab-Tek II® chamber slide (Nalge Nunc International, Naperville, IL, USA). The LNCaP cells were then treated with either 1 or 5 μM of ATRA or RAMBA for 6 days. Cells were then fixed in 4% paraformaldehyde solution in dH2O. The cells were then processed and stained with FITC (fluorescein isothiocyanate) according to kit instructions (In situ cell death detection kit, AP, Roche Diagnostics Corp., Indianapolis, IN, USA). The FITC-stained cells are then mounted with VectorShield® mounting medium for fluorescence with DAPI (4′,6-diamidine-2′-phenylindole dihydrochloride) nuclear stain (Vector Laboratories, Inc., Burlingame, CA, USA) and covered with ApopTag® plastic coverslips (Intergen Company, Purchase, NY, USA). The slides were then examined under fluorescence microscopy (Eclipse E400, Nikon, Inc., Melville, NY, USA) and counted using SPOT Advance® 3.5 software (Diagnostic Instruments, Inc., Sterling Heights, MI, USA).

C[C@@H]([C@H](c1ccc(Nc2nc3ccccc3s2)cc1)n1ccnc1)N(C)C [Compound R116010]
enhancement of the antiproliferative activity of ATRA [1]: threefold

CC1=C(/C=C/C(C)=C/C=C/C(C)=C/C(=O)Nc2ccc(O)cc2)C(C)(C)CCC1 [Compound 4-HPR, reference compound]
expression of Bcl-2 [2]: did not effect
Sub-G1 (%) ([3]; apoptotic cells, control 9.02): 7.52%
G2/M (%) ([3]; control 2.20): 12.03%
S (%) ([3]; control 15.01): 9.18%
G0/G1 (%) ([3]; control 82.78): 79.53%
induction of apoptosis (TUNEL) [4]: concentration-dependent induction of apoptosis
